Source: US20120005765A1, “ANIMAL MODEL FOR PARKINSON'S DISEASE” (Saint Louis University, priority 2010, published 2012)
Entries after “also recorded” stand apart in the source; their conditions may differ. Read-outs that look alike come from different tables or passages of the source. Each block holds one compound with its values, some of them ahead of it.

How the values were obtained:
PC12 cells = test: DOPAL toxicity in vitro, viable PC12 cell count (trypan blue)
Experimental: Determination of DOPAL toxicity in vitro Toxicity experiments were essentially as described previously. PC12 cultures were initially expanded in T-75 flasks with 20 ml Dulbecco's Modified Eagle's Medium supplemented with 4.5 g/l glucose, 4 mM L-glutamine, 5% fetal calf serum, 10% horse serum, 1000 units/l penicillin, and 100 mg/l streptomycin. Cells were transferred to six well culture plates with 2 ml media and grown to 1.5×10^5 cells/well, treated with 50 ng/ml nerve growth factor (NGF), and maintained in NGF-containing media for 7 d prior to experimentation. The medium was changed every 2-3 d. […] During the experiments, the medium was replaced once a day. Cells were detached with buffered saline containing EDT A, centrifuged at 200×g and resuspended in trypan blue for counting of viable cells. […] DOPAL and other compounds were added as described in the description of the figure and examples. Data was analyzed by ANOVA.
DOPAL, as well as other physiologically metabolites and adducts, were added to PC12 cells in culture at concentrations that were physiologically relevant.

ALDH1A1 = test: Antisense inhibition of ALDH1A1 expression in rat substantia nigra, immunoblot; type: in vivo; details: 1 week or 2 weeks; for optical density of ALDH1A1 Western blot bands, ipsilateral vs contralateral: Unscan software
Experimental: Antisense inhibition of ALDH1A1 expression in rats.
The immunoreactive bands of the Western blot of FIG. 8 were analyzed by Unscan it soft ware (Silk Scientific) and their optical densities plotted in FIG. 9.

rats = test: Rotational asymmetry after apomorphine; type: in vivo, rat; details: apomorphine 0.4 mg/kg, n=7
Experimental: (§1) Determination of DOPAL-induced Parkinson's disease-like behavior Injections of DOPAL or ALDH1A1 antisense oligo into rat SN. To determine if increased levels of DOPAL in SN produces a behavioral model of PD, 3 groups of rats were tested: unilateral SN injection of 4 μg DOPAL in 6 rats; unilateral SN injection of 0.56 μg antisense oligonucleotide (oligo) targeted to aldehyde dehydrogenase (ALDH1A1) mRNA, the DOPAL catabolic enzyme in 3 rats; 5 non-injected rats. After 5-7 weeks, rats were injected with apomorphine (0.4 mg/kg, subcutaneously) and rotational asymmetry determined in each group just prior to sacrifice. After the brains were fixed and sectioned, the SN, and forebrain were stained immunohistochemically for tyrosine hydroxylase immunoreactivity (THir). See Section 3.
Determination of rotational asymmetry. Rats first were injected subcutaneously with the dopamine agonist apomorphine (0.4 mg/kg) dissolved in 0.1 ascorbate saline solution. After waiting 5 min in their home cage, they were placed in a hemispheric rotation bowl 40 cm wide and 20 cm deep. Rotational behavior was then determined for 30 min and the number of ipsilateral and contralateral turns quantified by observation.
Rotational asymmetry was assessed to quantify the effect of unilateral depletions of striatal dopamine from disruptions of nigrostriatal circuitry. The rotational asymmetry behavior of rats (n=6) changed dramatically after injections with DOPAL (FIG. 5).
Behavioral asymmetry is considered the standard behavioral test for rodent models of Parkinson's disease. The column on the right is a summary of all the behaviors recorded in the rotational asymmetry test for all the rats ([…]).

α-synuclein = α-synuclein (Homo sapiens, UniProt P37840); test: DOPAL-triggered α-synuclein aggregation in test tube, Western blot; type: biochemical; details: AS 2 μM, 37° C., up to 4 h, DOPAL 1.5-1,500 μM
Experimental: Determination of DOPAL-triggered α-synuclein aggregation in vitro. Western blot of DOPAL-triggered AS aggregation in test tube experiments. DOPAL was dissolved in 1% benzyl alcohol, then diluted to a final concentration of 1.5-1,500 μM as described previously. AS (2 μM) was incubated at 37° C. in 20 μl of 100 mM tris-HCl buffer (pH 7.2) with or without DA, DOPAL, DOPAC, or homovanillic acid (HVA) for up to 4 h. The reaction was stopped by heating at 70° C. for 3 min in SDS buffer. The entire mixture was transferred to the appropriate gel (vide infra).
SDS-PAGE and immunoblotting. Ten micrograms of protein (estimated by Bio Rad protein reagent) was resolved by electrophoresis on 4-12% bis-tris gels run with MES SDS buffer, and 3-8% tris-acetate gels using tris-acetate running buffer. For immunoblotting, the protein was transferred to PVDF blotting membranes with […] pore size, blocked with 5% milk protein in tris buffered saline (TBS) containing 0.1% Tween 20, and incubated for 1 h with a AS 202 monoclonal antibody (1:2,500 dilution). Blots were washed five times with 5% milk protein in TBS and probed with horseradish peroxidase-conjugated anti-mouse secondary antibody (1:2,500). Blots were washed five times with TBS containing. 0.5% Tween 20 before detection with Super Signal (Pierce).
Western blot analysis was performed to analyze DOPAL-induced aggregation of α-synuclein (FIG. 1). […]

DA SN neurons = test: TH and NeuN immunohistochemistry after ALDH1A1 antisense injections into substantia nigra; type: in vivo, rat
Experimental: as §1
An antisense compound was used to decrease expression of ALDH1A1, which is responsible for breaking down DOPAL within the neuronal cell body and its effects on dopamine SN neurons and behavior were examined (FIGS. 6, 7). Three unilateral injections (total 800 nl; 700 pg/nl) of an antisense compound oligonucleotide (SEQ ID NO: 1), directed against the enzyme ALDH1A1, and comprising a phosphorothioate backbone, were made into the substantia nigra nucleus of the rat. The injections were placed in the pars compacta portion of the substantia nigra, the subnucleus where most of the dopaminergic neurons are found.

ALDH = details: Lamensdorf et al. 2000; cited from earlier work
[1] = Experiment 1, 66 μM, None 299 ± 19

Compound: Oc1ccc(CC2NCCc3cc(O)c(O)cc32)cc1O (stereo not shown) [Tetrahydropapaveroline]
- PC 12 cells/well × 103 (PC12 cells; [1]): 346 ± 15 cells/well × 103
- toxic in vitro at physiological levels (PC12 cells; PC12 cells in culture): not

Compound: C=C(C)[C@H]1Cc2c(ccc3c2O[C@@H]2COc4cc(OC)c(OC)cc4[C@@H]2C3=O)O1 [Rotenone, rotenone]
- PC 12 cells/well × 103 (PC12 cells; Experiment 2, 10 μM, None 143 ± 12): 127 ± 9 cells/well × 103

Compound: 5″-AGCAGACGATCTCTCTCCATT-3″ (DNA, backbone and methylation of C not given here) [Antisense 2, 21-base antisense oligonucleotide complementary to residues 313 to 333 of rat ALDH1A1 mRNA]
- ALDH1A1 protein, ipsilateral injected side vs contralateral side, Western blot (ALDH1A1): Loss of ALDH1A1
- ALDH1A1 protein, ipsilateral injected side vs contralateral side, Western blot (ALDH1A1; listed as antisense 2): loss of ALDH1A1 protein
- optical density of ALDH1A1 Western blot bands, ipsilateral vs contralateral (ALDH1A1): loss of ALDH1A1
- rotational asymmetry after unilateral antisense injection into SN (rats): dramatic shifts in its rotational preference

- aggregation of α-synuclein oligomers in vitro (α-synuclein): not
Compound: NCCc1ccc(O)c(O)c1 [DA, dopamine]
- toxic in vitro at physiological levels (PC12 cells): not
- PC 12 cells/well × 103 (PC12 cells; rat, 66 μM): 329 ± 21 cells/well × 103

Compound: 5″-TGCAGGGGAAGACATTGCTGGT-3″ [Antisense 1]
- ALDH1A1 protein, ipsilateral injected side vs contralateral side, Western blot (ALDH1A1): Loss of ALDH1A1
- ALDH1A1 protein, ipsilateral injected side vs contralateral side, Western blot (ALDH1A1; listed as antisense 1): loss of ALDH1A1 protein
- optical density of ALDH1A1 Western blot bands, ipsilateral vs contralateral (ALDH1A1): loss of ALDH1A1
- neurons immediately adjacent to the injection site, Neun immunostaining (DA SN neurons; case R2504): have died
- intensity of TH staining in the injected SN (DA SN neurons; three unilateral injections, total 800 nl, 700 pg/nl): slightly less
- dopaminergic projections to rostral brain / ventral striatum, TH immunostaining (DA SN neurons; three unilateral injections, total 800 nl, 700 pg/nl, 5 or 7 weeks, listed as SEQ ID NO: 1): dramatically reduced; also recorded: absent/decreased
- rotational asymmetry after unilateral antisense injection into SN (rats): dramatic shifts in its rotational preference

Compound: O=c1c(-c2ccc(O)cc2)coc2cc(O)ccc12 [daidzein]
- inhibiting ALDH in PC-12 cells (ALDH): effective

Compound: O=C(O)Cc1ccc(O)c(O)c1 [DOPAC, 3,4-dihydroxyphenylacetic acid]
- toxic in vitro at physiological levels (PC12 cells): not
- PC 12 cells/well × 103 (PC12 cells; rat, 66 μM): 334 ± 10 cells/well × 103

Compound: COc1cc(CC(=O)O)ccc1O [HVA, homovanillic acid]
- PC 12 cells/well × 103 (PC12 cells; [1]): 322 ± 20 cells/well × 103
- toxic in vitro at physiological levels (PC12 cells; PC12 cells in culture): not
